# From patent US20050009005A1, “Methods of using quantitative lipid metabolome data” (Lipomics Technologies, Inc., priority 2001, published 2005)
# Test system: de novo fatty acid synthesis
# Experiment: Lipid metabolite profile of plasma, heart, liver and inguinal adipose of CL316,243-treated mice (trial 2; Tables 7 and 8)
# Format: in vivo
# Conditions: for 14:0 / 16:0 / 16:1n7 / 18:0 / 18:1n7 / 18:1n9 / Saturates / Total / Total n7 / Total n9 / Total nMole of FA: mean
# Source text: It is understood that the described methods can be used to analyze lipid metabolites from other subjects, including particularly animals other than mice.
# Mouse tissue and plasma samples were a generous donation to Lipomics Technologies, Inc., from Dr. Edward Leiter of the Jackson Laboratory (Bar Harbor, Me.). Samples included the plasma, heart, liver and inguinal adipose of mice treated with pharmaceuticals or their corresponding controls.
# In trial 2, male, inbred NON mice were fed a control with or without the presence of the β-3 adrenergic agonist CL316,243 for four weeks (at 0.001% CL316,243 by weight in the dietary chow).
# In both studies, five treated and five control mice were used. Following the treatments and the killing of the mice, tissues and plasma were taken, chilled to −80 ° C. and shipped to the analysis laboratory at Lipomics Technologies in a frozen state.
# Tissue processing and lipid extraction, including provision of internal standards, was carried out essentially as described in Watkins et al. (J. Lipid Res. Papers in Press, 10.1184/jlf.M200169-JLF200, published August 16, 2002), and in co-owned international application PCT/US02/21426, entitled “GENERATING, VIEWING, INTERPRETING, AND UTILIZING A QUANTITATIVE DATABASE OF METABOLITES,” both of which are incorporated in their entirety herein by reference.
# The separation of lipid classes was performed in some instance by preparative thin-layer chromatography (TLC). To remove any residual metal or other damaging contaminants on the TLC plates, each plate was washed prior to use. Washing the plates is a three-step process that involves impregnating each plate with ethylenediamine tetraacetic acid (EDTA) and rinsing the plates once with methanol and once with chloroform. Each plate is first impregnated with 1 mM EDTA, pH 5.5, by ascending development using the method of Ruiz (J. Lipid Res. 38, 1482-1489, 1997). After each plate was completely developed, it was dried in air overnight. Once dry, each plate was developed in methanol, dried, and developed in chloroform in the same direction as the development with EDTA. The washed plates were then dried in air. Just prior to use, each plate was activated by heating to 110° C. for 10 minutes.
# To prepare the TLC chamber for chromatography, Whatman (Clifton, N.J.) filter paper was cut into 20×80-cm strips and wrapped around the inside wall of a 30×60×10-cm glass development chamber. One hundred milliliters of the appropriate mobile phase was added to the chamber, and the chambers were sealed and allowed to equilibrate. Chambers were considered equilibrated when the solvent front had completely ascended the filter paper. The mobile phase employed for the separation of phospholipid classes (lyso-phospholipids, sphingomyelin, phosphatidylcholine, phosphatidylserine, phosphatidylethanolamine and cardiolipin) was a modification of the solvent system described by Holub and Skeaf (“Nutritional regulation of cellular phosphatidylinositol,” in Methods in Enzymology, ed. Conn, P. M. (Academic Press, Inc., Orlando), pp. 234-243, 1987) consisting of chloroform/methanol/acetic acid/water (100:67:7:4, by volume).
# For the separation of neutral lipid classes (free fatty acids, free sterols, triacylglycerides and cholesterol esters), a solvent system consisting of petroleum ether/diethyl ether/acetic acid (80:20:1, by volume) was used (Mangold, Thin Layer Chromatography—A Laboratory Handbook (Springer-Verlag, New York), 1969).
# After the TLC plate was activated, the sample extracts were spotted onto the activated plate. As a general rule, samples were spotted at an estimated concentration such that no single lipid class was present at more than 25 jig per centimeter of plate width following chromatography. This ensured that the plate was not overloaded and minimized the risk of cross-contamination between lipid classes (cross-contamination is readily identified during sample analysis as each lipid class contains unique internal standards). […]
structure (smiles),measurement,setting,value
"C[C@H](Cc1ccc2c(c1)OC(C(=O)[O-])(C(=O)[O-])O2)NC[C@H](O)c1cccc(Cl)c1.[Na+].[Na+] [CL316,243]",14:0,"Adipose, CE",65.2 nanomoles per gram
same,16:0,"Adipose, CE",326.2 nanomoles per gram
same,16:1n7,"Adipose, CE",85.7 nanomoles per gram
same,18:0,"Adipose, CE",72.1 nanomoles per gram
same,18:1n7,"Adipose, CE",50.6 nanomoles per gram
same,18:1n9,"Adipose, CE",344.4 nanomoles per gram
same,14:0,"Adipose, FFA",833.3 nanomoles per gram
same,16:0,"Adipose, FFA",6822.9 nanomoles per gram
same,16:1n7,"Adipose, FFA",2652.0 nanomoles per gram
same,18:0,"Adipose, FFA",1467.5 nanomoles per gram
same,18:1n7,"Adipose, FFA",864.3 nanomoles per gram
same,18:1n9,"Adipose, FFA",9845.4 nanomoles per gram
same,14:0,"Adipose, PL",74.4 nanomoles per gram
same,16:0,"Adipose, PL",1403.3 nanomoles per gram
same,16:1n7,"Adipose, PL",291.2 nanomoles per gram
same,18:0,"Adipose, PL",1249.1 nanomoles per gram
same,18:1n7,"Adipose, PL",118.1 nanomoles per gram
same,18:1n9,"Adipose, PL",794.7 nanomoles per gram
same,14:0,"Adipose, TAG",79501.6 nanomoles per gram
same,16:0,"Adipose, TAG",666399.1 nanomoles per gram
same,16:1n7,"Adipose, TAG",265948.0 nanomoles per gram
same,18:0,"Adipose, TAG",73800.5 nanomoles per gram
same,18:1n7,"Adipose, TAG",49837.1 nanomoles per gram
same,18:1n9,"Adipose, TAG",793227.6 nanomoles per gram
same,14:0,"Adipose, lipid class CE",4.5 percentage of total fatty acids
same,16:0,"Adipose, lipid class CE",24.4 percentage of total fatty acids
same,16:1n7,"Adipose, lipid class CE",6.8 percentage of total fatty acids
same,18:0,"Adipose, lipid class CE",5.1 percentage of total fatty acids
same,18:1n7,"Adipose, lipid class CE",3.5 percentage of total fatty acids
same,18:1n9,"Adipose, lipid class CE",26.2 percentage of total fatty acids
same,Saturates,"Adipose, lipid class CE",35.7 percentage of total fatty acids
same,Total,"Adipose, lipid class CE",100.0 percentage of total fatty acids
same,Total n7,"Adipose, lipid class CE",10.3 percentage of total fatty acids
same,Total n9,"Adipose, lipid class CE",28.8 percentage of total fatty acids
same,14:0,"Adipose, lipid class FFA",2.6 percentage of total fatty acids
same,16:0,"Adipose, lipid class FFA",21.7 percentage of total fatty acids
same,16:1n7,"Adipose, lipid class FFA",9.2 percentage of total fatty acids
same,18:0,"Adipose, lipid class FFA",6.8 percentage of total fatty acids
same,18:1n7,"Adipose, lipid class FFA",2.8 percentage of total fatty acids
same,18:1n9,"Adipose, lipid class FFA",30.7 percentage of total fatty acids
same,Saturates,"Adipose, lipid class FFA",31.8 percentage of total fatty acids
same,Total,"Adipose, lipid class FFA",100.0 percentage of total fatty acids
same,Total n7,"Adipose, lipid class FFA",12.0 percentage of total fatty acids
same,Total n9,"Adipose, lipid class FFA",31.5 percentage of total fatty acids
same,14:0,"Adipose, lipid class PL",1.4 percentage of total fatty acids
same,16:0,"Adipose, lipid class PL",19.9 percentage of total fatty acids
same,16:1n7,"Adipose, lipid class PL",5.5 percentage of total fatty acids
same,18:0,"Adipose, lipid class PL",16.1 percentage of total fatty acids
same,18:1n7,"Adipose, lipid class PL",1.9 percentage of total fatty acids
same,18:1n9,"Adipose, lipid class PL",14.6 percentage of total fatty acids
same,Saturates,"Adipose, lipid class PL",39.0 percentage of total fatty acids
same,Total,"Adipose, lipid class PL",100.0 percentage of total fatty acids
same,Total n7,"Adipose, lipid class PL",7.4 percentage of total fatty acids
same,Total n9,"Adipose, lipid class PL",15.3 percentage of total fatty acids
same,14:0,"Adipose, lipid class TAG",3.3 percentage of total fatty acids
same,16:0,"Adipose, lipid class TAG",26.9 percentage of total fatty acids
same,16:1n7,"Adipose, lipid class TAG",10.8 percentage of total fatty acids
same,18:0,"Adipose, lipid class TAG",2.9 percentage of total fatty acids
same,18:1n7,"Adipose, lipid class TAG",2.0 percentage of total fatty acids
same,18:1n9,"Adipose, lipid class TAG",31.9 percentage of total fatty acids
same,Saturates,"Adipose, lipid class TAG",33.3 percentage of total fatty acids
same,Total,"Adipose, lipid class TAG",100.0 percentage of total fatty acids
same,Total n7,"Adipose, lipid class TAG",12.9 percentage of total fatty acids
same,Total n9,"Adipose, lipid class TAG",32.2 percentage of total fatty acids
same,lipid concentrations in plasma,"CL316,243 4 weeks vs controls",decreased
same,lipid synthesis in tissues,"CL316,243 4 weeks vs controls (Table 7)",decreased
same,vaccenic acid concentrations in these lipid classes,"CL316,243 4 weeks vs controls, heart, liver, adipose, plasma",typically decreased
same,14:0,"Heart, CE",59.3 nanomoles per gram
same,16:0,"Heart, CE",187.4 nanomoles per gram
same,16:1n7,"Heart, CE",36.2 nanomoles per gram
same,18:0,"Heart, CE",85.3 nanomoles per gram
same,18:1n7,"Heart, CE",19.6 nanomoles per gram
same,18:1n9,"Heart, CE",389.5 nanomoles per gram
same,Saturates,"Heart, CE",366.8 nanomoles per gram
same,Total n7,"Heart, CE",55.8 nanomoles per gram
same,Total n9,"Heart, CE",405.7 nanomoles per gram
same,Total nMole of FA,"Heart, CE",1226.9 nanomoles per gram
same,14:0,"Heart, CL",76.3 nanomoles per gram
same,16:0,"Heart, CL",231.1 nanomoles per gram
same,16:1n7,"Heart, CL",204.0 nanomoles per gram
same,18:0,"Heart, CL",397.1 nanomoles per gram
same,18:1n7,"Heart, CL",381.8 nanomoles per gram
same,18:1n9,"Heart, CL",956.2 nanomoles per gram
same,Saturates,"Heart, CL",776.3 nanomoles per gram
same,Total n7,"Heart, CL",585.8 nanomoles per gram
same,Total n9,"Heart, CL",1011.4 nanomoles per gram
same,Total nMole of FA,"Heart, CL",2975.1 nanomoles per gram
same,14:0,"Heart, FFA",181.4 nanomoles per gram
same,16:0,"Heart, FFA",1012.4 nanomoles per gram
same,16:1n7,"Heart, FFA",156.8 nanomoles per gram
same,18:0,"Heart, FFA",427.8 nanomoles per gram
same,18:1n7,"Heart, FFA",139.4 nanomoles per gram
same,18:1n9,"Heart, FFA",1964.0 nanomoles per gram
same,Saturates,"Heart, FFA",1683.2 nanomoles per gram
same,Total n7,"Heart, FFA",296.1 nanomoles per gram
same,Total n9,"Heart, FFA",2017.6 nanomoles per gram
same,Total nMole of FA,"Heart, FFA",6044.8 nanomoles per gram
same,14:0,"Heart, PC",94.6 nanomoles per gram
same,16:0,"Heart, PC",8127.9 nanomoles per gram
same,16:1n7,"Heart, PC",108.7 nanomoles per gram
same,18:0,"Heart, PC",5235.9 nanomoles per gram
same,18:1n7,"Heart, PC",568.2 nanomoles per gram
same,18:1n9,"Heart, PC",1990.2 nanomoles per gram
same,Saturates,"Heart, PC",13577.6 nanomoles per gram
same,Total n7,"Heart, PC",676.9 nanomoles per gram
same,Total n9,"Heart, PC",2052.1 nanomoles per gram
same,Total nMole of FA,"Heart, PC",15087.3 nanomoles per gram
same,14:0,"Heart, PE",27.5 nanomoles per gram
same,16:0,"Heart, PE",1814.0 nanomoles per gram
same,16:1n7,"Heart, PE",59.6 nanomoles per gram
same,18:0,"Heart, PE",5241.4 nanomoles per gram
same,18:1n7,"Heart, PE",250.5 nanomoles per gram
same,18:1n9,"Heart, PE",934.9 nanomoles per gram
same,14:0,"Heart, PL",170.5 nanomoles per gram
same,16:0,"Heart, PL",10799.7 nanomoles per gram
same,16:1n7,"Heart, PL",344.7 nanomoles per gram
same,18:0,"Heart, PL",13320.8 nanomoles per gram
same,18:1n7,"Heart, PL",1181.0 nanomoles per gram
same,18:1n9,"Heart, PL",4121.5 nanomoles per gram
same,14:0,"Heart, PS/I",33.4 nanomoles per gram
